Test: recombinant UMI read abundance after kanamycin selection (control-corrected) (log10(CPM+1)); higher = more efficient recombination; extreme values may be limits of the assay; sequences stand for … in AGTGCAGAGAAAATCGGCCAGTTTTCTCTGCCTGCAGTCCGCATGCCGTGGGACCCCTTGGGTTCTAACCTGTTGCCTAGATTTATGCAGCGGACTGCCTTTCTCCCAAAGTGATAAACCGG…AGGTTGGTTTCACT; site = the 11-nt donor
Protocol: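 Pooled E. coli donor-specificity screen for the IS621 bridge recombinase. Each library member carries a reprogrammed 11-nt donor and a full-length LE bridge RNA expressed in cis from the natural promoter, with a paired donor-binding loop (8-nt LDG + 4-nt RDG) and a target-binding loop fixed to T5. It is co-electroporated with a T5 target plasmid; recombinase is induced with 0.07 mM IPTG and recombinants are selected on kanamycin. UMIs are counted as CPM, averaged over two biological replicates and corrected by the unselected control. Molecule = full bridge RNA written as DNA, built from the T5 scaffold: LDG = donor specificity nt 1-8, RDG = reverse complement of nt 8-11.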
With “ACAGTATCATGGACCGGTTTTCCCGGTAATCCGTATTTGCA (site ACAGGACCTTG)” the “recombinant UMI read abundance (log10)” value was 0. With “ACAGTATCATGGACCGGTTTTCCCGGTAATCCGTATTTGCA (site ACAGGATCTGG)” the “recombinant UMI read abundance (log10)” value was 0. For “ACAGTATCATGGACCGGTTTTCCCGGTAATCCGTATTTGCA (site ACAGGATCTTG)”, the “recombinant UMI read abundance (log10)” value was 1.01. With “ACAGTATCATGGACCGGTTTTCCCGGTAATCCGTATTTGCA (site ACAGGATCTTT)” the “recombinant UMI read abundance (log10)” value was 0. For “ACAGTATCATGGACCGGTTTTCCCGGTAATCCGTATTTGCA (site ACAGGGTCTTG)”, the “recombinant UMI read abundance (log10)” value was 1.17. With “ACAGTATCATGGACCGGTTTTCCCGGTAATCCGTATTTGCA (site ACAGTAACTAG)” the “recombinant UMI read abundance (log10)” value was 0. For “ACAGTATCATGGACCGGTTTTCCCGGTAATCCGTATTTGCA (site ACAGTAACTTC)”, the “recombinant UMI read abundance (log10)” value was 0.0177. For “ACAGTATCATGGACCGGTTTTCCCGGTAATCCGTATTTGCA (site ACAGTAACTTG)”, the “recombinant UMI read abundance (log10)” value was 1.55. In the case of “ACAGTATCATGGACCGGTTTTCCCGGTAATCCGTATTTGCA (site ACAGTACCTGG)”, the “recombinant UMI read abundance (log10)” value is reported as 0. In the case of “ACAGTATCATGGACCGGTTTTCCCGGTAATCCGTATTTGCA (site ACAGTACCTTG)”, the “recombinant UMI read abundance (log10)” value is reported as 0. With “ACAGTATCATGGACCGGTTTTCCCGGTAATCCGTATTTGCA (site ACAGTACCTTT)” the “recombinant UMI read abundance (log10)” value was 0.00804. With “ACAGTATCATGGACCGGTTTTCCCGGTAATCCGTATTTGCA (site ACAGTAGCTCG)” the “recombinant UMI read abundance (log10)” value was 0.00206. For “ACAGTATCATGGACCGGTTTTCCCGGTAATCCGTATTTGCA (site ACAGTAGCTTA)”, the “recombinant UMI read abundance (log10)” value was 0.00334. In the case of “ACAGTATCATGGACCGGTTTTCCCGGTAATCCGTATTTGCA (site ACAGTAGCTTG)”, the “recombinant UMI read abundance (log10)” value is reported as 0.142. In the case of “ACAGTATCATGGACCGGTTTTCCCGGTAATCCGTATTTGCA (site ACAGTATCTAC)”, the “recombinant UMI read abundance (log10)” value is reported as 0. In the case of “ACAGTATCATGGACCGGTTTTCCCGGTAATCCGTATTTGCA (site ACAGTATCTAG)”, the “recombinant UMI read abundance (log10)” value is reported as 1.81. For “ACAGTATCATGGACCGGTTTTCCCGGTAATCCGTATTTGCA (site ACAGTATCTCA)”, the “recombinant UMI read abundance (log10)” value was 0.878. In the case of “ACAGTATCATGGACCGGTTTTCCCGGTAATCCGTATTTGCA (site ACAGTATCTCG)”, the “recombinant UMI read abundance (log10)” value is reported as 1.77. For “ACAGTATCATGGACCGGTTTTCCCGGTAATCCGTATTTGCA (site ACAGTATCTGG)”, the “recombinant UMI read abundance (log10)” value was 2.13. With “ACAGTATCATGGACCGGTTTTCCCGGTAATCCGTATTTGCA (site ACAGTATCTGT)” the “recombinant UMI read abundance (log10)” value was 0.00931. In the case of “ACAGTATCATGGACCGGTTTTCCCGGTAATCCGTATTTGCA (site ACAGTATCTTA)”, the “recombinant UMI read abundance (log10)” value is reported as 2.23. With “ACAGTATCATGGACCGGTTTTCCCGGTAATCCGTATTTGCA (site ACAGTATCTTC)” the “recombinant UMI read abundance (log10)” value was 1.17. In the case of “ACAGTATCATGGACCGGTTTTCCCGGTAATCCGTATTTGCA (site ACAGTATCTTG)”, the “recombinant UMI read abundance (log10)” value is reported as 2.67. In the case of “ACAGTATCATGGACCGGTTTTCCCGGTAATCCGTATTTGCA (site ACAGTATCTTT)”, the “recombinant UMI read abundance (log10)” value is reported as 2.17. With “ACAGTATCATGGACCGGTTTTCCCGGTAATCCGTATTTGCA (site ACAGTCACTTG)” the “recombinant UMI read abundance (log10)” value was 2.03. With “ACAGTATCATGGACCGGTTTTCCCGGTAATCCGTATTTGCA (site ACAGTCTCTAG)” the “recombinant UMI read abundance (log10)” value was 0. In the case of “ACAGTATCATGGACCGGTTTTCCCGGTAATCCGTATTTGCA (site ACAGTCTCTTC)”, the “recombinant UMI read abundance (log10)” value is reported as 0.0179. For “ACAGTATCATGGACCGGTTTTCCCGGTAATCCGTATTTGCA (site ACAGTCTCTTG)”, the “recombinant UMI read abundance (log10)” value was 2.06. In the case of “ACAGTATCATGGACCGGTTTTCCCGGTAATCCGTATTTGCA (site ACAGTGCCTTG)”, the “recombinant UMI read abundance (log10)” value is reported as 0.121. For “ACAGTATCATGGACCGGTTTTCCCGGTAATCCGTATTTGCA (site ACAGTGTCTGG)”, the “recombinant UMI read abundance (log10)” value was 0. With “ACAGTATCATGGACCGGTTTTCCCGGTAATCCGTATTTGCA (site ACAGTGTCTTG)” the “recombinant UMI read abundance (log10)” value was 2.4. With “ACAGTATCATGGACCGGTTTTCCCGGTAATCCGTATTTGCA (site ACAGTGTCTTT)” the “recombinant UMI read abundance (log10)” value was 0.0151. In the case of “ACAGTATCATGGACCGGTTTTCCCGGTAATCCGTATTTGCA (site ACAGTTGCTTG)”, the “recombinant UMI read abundance (log10)” value is reported as 0.0085. For “ACAGTATCATGGACCGGTTTTCCCGGTAATCCGTATTTGCA (site ACAGTTTCTCG)”, the “recombinant UMI read abundance (log10)” value was 0. With “ACAGTATCATGGACCGGTTTTCCCGGTAATCCGTATTTGCA (site ACAGTTTCTTA)” the “recombinant UMI read abundance (log10)” value was 0.0131. With “ACAGTATCATGGACCGGTTTTCCCGGTAATCCGTATTTGCA (site ACAGTTTCTTG)” the “recombinant UMI read abundance (log10)” value was 1.23.
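Note: IS621 bridge recombinase in Escherichia coli cells against a fixed T5 target plasmid.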
